# Assays:
# [1] = Inhibition of DENV-2 NS5 RdRp polymerase expressed in Escherichia coli Rosetta2(DE3) measured after 1 hr by [alpha-32P]UTP-labeled radio-probe based scintillation counter analysis; design: species or system dengue virus type 2
# [2] = test system: dengue virus type 4; experiment: Antiviral activity against DENV4 infected in hamster BHK-21 cells assessed as inhibition of virus induced cytopathic effect incubated for 45 mins by focus-formation assay; type: functional, organism-based; conditions: BHK-21, 0.75 h
# [3] = test system: dengue virus type 2; experiment: Antiviral activity against DENV2; type: functional, organism-based
# [4] = test system: Dengue virus; experiment: Antiviral activity against DENV; type: functional, organism-based
# [5] = test system: dengue virus type 2; experiment: Antiviral activity against DENV2 infected in hamster BHK-21 cells assessed as inhibition of virus induced cytopathic effect incubated for 45 mins by plaque formation assay; type: functional, organism-based; conditions: BHK-21, 0.75 h
# [6] = test system: Aedes aegypti; experiment: Larvicidal activity against Aedes aegypti assessed as lethal dose per mosquito measured for 24 hrs; type: functional
# [7] = test system: Aedes aegypti; experiment: Larvicidal activity against Aedes aegypti assessed as mortality rate at 5 ug per mosquito measured after 24 hrs relative to control; type: functional; conditions: dose 5 µg
# [8] = Cytotoxicity against African green monkey Vero cells assessed as cell growth inhibition after 48 hrs by MTT assay; type: toxicity, cell-based; conditions: chlorocebus sabaeus
# [9] = Selectivity Index, ratio of CC50 for African green monkey Vero cells to EC50 for antiviral activity against DENV2 infected in African green monkey Vero cells; type: toxicity; conditions: Vero cells (CC50) and DENV2-infected Vero cells (EC50)
# [10] = test system: dengue virus type 2; experiment: Antiviral activity against DENV2 infected in African green monkey Vero cells assessed as inhibition of viral replication measured after 48 hrs by RT-PCR analysis; type: functional, organism-based
# [11] = molecular target: Genome polyprotein (dengue virus type 2, UniProt P29990); experiment: Inhibition of DENV2 NS2B-NS3 protease using Bz-Nle-Lys-Arg-Arg-AMC as substrate measured after 30 mins by spectrofluorometer analysis
# [12] = molecular target: Genome polyprotein (dengue virus type 2) (UniProt P29990); experiment: Inhibition of DENV2 NS2B-NS3 protease at 50 uM using Bz-Nle-Lys-Arg-Arg-AMC as substrate measured after 30 mins by spectrofluorometer analysis relative to control
# [13] = molecular target: Genome polyprotein (dengue virus type 2) (UniProt P29990); experiment: Inhibition of DENV2 NS2B-NS3 protease at 50 uM using Bz-Nle-Lys-Arg-Arg-AMC as substrate by spectrofluorometer analysis relative to control
# [14] = test system: Aedes aegypti; experiment: Larvicidal activity against Aedes aegypti assessed as mortality measured upto 48 hrs; type: functional; conditions: for LC50: Aedes aegypti
# [15] = test system: dengue virus type 1; experiment: Antiviral activity against DENV1 infected in hamster BHK-21 cells assessed as inhibition of virus induced cytopathic effect incubated for 45 mins by focus-formation assay; type: functional, organism-based; conditions: BHK-21, 0.75 h
# [16] = test system: dengue virus type 4; experiment: Antiviral activity against DENV4 infected in hamster BHK-21 cells assessed as inhibition of virus induced cytopathic effect by viral tox-glo assay; type: functional, organism-based
# [17] = Inhibition of DENV2 His6-tagged recombinant NGC RdRP expressed in Escherichia coli Rosetta2(DE3) measured after 180 mins in presence of NTP by scintillation counter analysis; design: species or system dengue virus type 2
# [18] = test system: dengue virus type 3; experiment: Antiviral activity against DENV3 infected in hamster BHK-21 cells assessed as inhibition of virus induced cytopathic effect by viral tox-glo assay; type: functional, organism-based
# [19] = Inhibition of DENV3 (MY00-22366) RdRP expressed in Escherichia coli Rosetta2(DE3) incubated for 180 mins in presence of ATP,GTP,and UTP by scintillation counter analysis; design: species or system dengue virus type 3
# [20] = test system: dengue virus type 2; experiment: Antiviral activity against DENV2 infected in hamster BHK-21 cells assessed as inhibition of virus induced cytopathic effect by viral tox-glo assay; type: functional, organism-based
# [21] = Inhibition of DENV4 (MY01-22713) RdRP expressed in Escherichia coli Rosetta2(DE3) incubated for 180 mins in presence of ATP,GTP,and UTP by scintillation counter analysis; design: species or system dengue virus type 4
# [22] = test system: dengue virus type 1; experiment: Antiviral activity against DENV1 infected in hamster BHK-21 cells assessed as inhibition of virus induced cytopathic effect by viral tox-glo assay; type: functional, organism-based
# [23] = Inhibition of DENV1 (US/Hawaii/1944) RdRP expressed in Escherichia coli Rosetta2(DE3) incubated for 180 mins in presence of ATP,GTP,and UTP by scintillation counter analysis; design: species or system dengue virus type 1
# [24] = test system: dengue virus type 3; experiment: Antiviral activity against DENV3 infected in African green monkey Vero cells assessed as inhibition of virus induced cytopathic effect incubated for 45 mins by focus-formation assay; type: functional, organism-based; conditions: 0.75 h
# [25] = test system: dengue virus type 2; experiment: Antiviral activity against DENV2 infected in asian tiger mosquito C6/36 cells assessed as inhibition of virus induced cytopathic effect measured after 96 hrs by methylene blue staining based microscopic analysis; type: functional, organism-based; conditions: C6/36, 96 h
# [26] = Selectivity Index, ratio of CC50 for hamster BHK-21 cells to EC50 for antiviral activity against DENV2 infected in asian tiger mosquito C6/36 cells; type: toxicity; conditions: BHK-21 cells (CC50) and DENV2-infected C6/36 cells (EC50)
# [27] = Cytotoxicity against hamster BHK-21 cells assessed as cell growth inhibition after 48 hrs by MTT assay; type: toxicity, cell-based, Mesocricetus auratus
smiles,measurement,setting,value
O=C1N/C(=N\c2nnc(-c3cccnc3)s2)S/C1=C\c1cccc(F)c1,IC50,[1],5.5 µM
FC(F)(F)Oc1ccccc1Nc1nccc(Nc2ccc(C(F)(F)F)cc2)n1,IC50,[2],5 µM
CC(C)(C)[Si](C)(C)Oc1ccc(C2N(Nc3ccc([N+](=O)[O-])cc3)C(=O)[C@@H]3Cc4ccccc4N23)cc1 (stereo not given in full),EC50,[3],4.79 µM
O=C1N/C(=N\c2nnc(-c3ccccc3F)s2)S/C1=C\c1cccc(F)c1,IC50,[1],7.2 µM
Fc1cc2cn[nH]c2cc1Nc1ccnc2ccc(Br)cc12,EC50,[4],0.69 µM
same,EC90,[4],4 µM
O=C1N/C(=N\c2nnc(-c3cccc(F)c3)s2)S/C1=C\c1cccc(F)c1,IC50,[1],2.3 µM
FC(F)(F)Oc1ccc(Nc2ccnc(Nc3ccccc3OC(F)(F)F)n2)cc1,IC50,[5],5 µM
O=C1N/C(=N\c2nnc(-c3ccccc3Cl)s2)S/C1=C\c1cccc(F)c1,IC50,[1],2.1 µM
CS(=O)(=O)N1CCN(c2nnc(-c3ccc(Br)cc3)o2)C1=O,LD50,[6],3.55 µg
same,Activity,[7],86.7%
COc1ccc([C@@H]2N(Nc3ccc([N+](=O)[O-])cc3)C(=O)[C@@H]3Cc4ccccc4N23)cc1OC,EC50,[3],9.35 µM
CS(=O)(=O)N1CCN(c2nnc(-c3ccc(Cl)cc3Cl)o2)C1=O,LD50,[6],2.39 µg
same,Activity,[7],86.7%
CCCc1cc(=O)oc2c(C(=O)CC(C)C)c(O)c(CC=C(C)C)c(O)c12,CC50 at 48 h,[8],550 µg/mL
same,selectivity ratio,[9],212
same,EC50,[10],2.6 µg/mL
CS(=O)(=O)N1CCN(c2nnc(-c3ccccc3)o2)C1=O,Activity,[7],73.3%
CC(C)CC(=O)c1c(O)c2c(c3c(-c4ccccc4)cc(=O)oc13)OC(C)(C)C=C2 [ISOMAMMEIGIN],CC50 at 48 h,[8],3150 µg/mL
same,selectivity ratio,[9],328
same,EC50,[10],9.6 µg/mL
O=C1c2ccccc2C(=O)N1CCCCSc1nnc(-c2ccc(NS(=O)(=O)c3ccc(C(F)(F)F)cc3)cc2)o1,IC50,[11],15.1 µM
same,inhibition,[12],77.6%
Cc1cc([N+](=O)[O-])ccc1-n1sc2ccccc2c1=O,inhibition,[13],92%
FC(F)(F)Oc1cccc(Nc2nccc(Nc3ccc(C(F)(F)F)cc3)n2)c1,IC50,[5],5 µM
O=C1c2ccccc2C(=O)N1CCCSc1nnc(-c2ccc(NS(=O)(=O)c3ccc(C(F)(F)F)cc3)cc2)o1,IC50,[11],13.9 µM
same,inhibition,[12],99.9%
Cc1[nH]c2c(C(=O)O)cccc2c1C,LC90,[14],>528.51 µM
same,LC50,[14],> 854 µM
O=C1N/C(=N\c2nnc(-c3cccc(F)c3)s2)S/C1=C\c1c(Cl)cccc1Cl,IC50,[1],5.8 µM
O=c1c2ccccc2sn1-c1ccccc1Cl,inhibition,[13],94%
OCCN1CCN(c2nccc(Nc3ccc(-c4ccccc4)cc3)n2)CC1,LC90,[14],30.13 µM
same,LC50,[14],19.9 µM
Cc1ccc(S(=O)(=O)Nc2ccc(-c3nnc(SCc4cccc(C(F)(F)F)c4)o3)cc2)cc1,IC50,[11],23.9 µM
same,inhibition,[12],80.4%
Cc1ccc(S(=O)(=O)Nc2ccc(-c3nnc(SCc4ccc(C(F)(F)F)cc4)o3)cc2)cc1,IC50,[11],25.2 µM
same,inhibition,[12],83.9%
O=C1N=Cc2ccc(Nc3ccnc4ccc(Br)cc34)cc21,EC50,[4],0.64 µM
same,EC90,[4],1.5 µM
COc1cccc(Nc2ccnc3ccc(C(F)(F)F)cc23)c1,EC50,[4],0.82 µM
O=c1c2ccccc2sn1-c1ccccc1O,inhibition,[13],89%
O=c1c2ccccc2sn1-c1c(Cl)cccc1Cl,inhibition,[13],94%
FC(F)(F)Oc1ccc(Nc2ccnc(Nc3cccc(OC(F)(F)F)c3)n2)cc1,IC50,[15],4 µM
O=C(NO)c1ncc(CS(=O)(=O)c2ccccc2)c(CO)c1O,EC50,[16],2.2 µM
same,IC50,[17],6 µM
same,EC50,[18],2.7 µM
same,IC50,[19],6.7 µM
same,EC50,[20],2.8 µM
same,IC50,[21],5 µM
same,EC50,[22],2.7 µM
same,IC50,[23],5.7 µM
O=c1c2ccccc2sn1-c1ccc(Br)cc1,inhibition,[13],80%
FC(F)(F)Oc1cccc(Nc2ccnc(Nc3cccc(OC(F)(F)F)c3)n2)c1,IC50,[24],5 µM
Cc1ccc(-c2nc3nc4c(c(N5CCN(Cc6ccc7c(c6)OCO7)CC5)n3n2)CCC4)cc1,EC50,[25],4.5 µM
same,selectivity ratio,[26],14.7
same,CC50 at 48 h,[27],66 µM
Cc1ccc(S(=O)(=O)Nc2ccc(-c3nnc(SCc4ccccc4C(F)(F)F)o3)cc2)cc1,IC50,[11],24 µM
same,inhibition,[12],80.8%
Oc1cccc(Nc2ccnc3ccc(Br)cc23)c1,EC50,[4],0.63 µM
O=c1c2ccccc2sn1-c1ccccc1[N+](=O)[O-],inhibition,[13],72%
CNc1cccc(Nc2ccnc3ccc(Br)cc23)c1,EC50,[4],0.24 µM
CS(=O)(=O)N1CCN(c2nnc(-c3ccc(F)cc3)o2)C1=O,Activity,[7],70%
Cc1cc(OC(F)(F)F)ccc1Nc1ccnc(Nc2ccccc2OC(F)(F)F)n1,IC50,[5],5 µM
Cc1[nH]c2ccc(Br)cc2c1C,LC90,[14],14.74 µM
same,LC50,[14],10.6 µM
